COC(=O)[C@@H](N)Cc1c[nH]c2ccccc12.Cl
solubility (mole fraction)
Conditions | 283.2 K | 288.2 K | 293.2 K | 298.2 K | 303.2 K | 308.2 K | 313.2 K | 318.2 K | 323.2 K
in 2-butanone | 0.000254 | 0.000295 | 0.00034 | 0.000401 | 0.000495 | 0.00058 | 0.000748 | 0.001 | 0.00141
in acetone | 0.000289 | 0.000374 | 0.000489 | 0.000605 | 0.000793 | 0.00104 | 0.00144 | 0.00219 | 0.00343
in acetonitrile | 3.75e-05 | 4.38e-05 | 5.24e-05 | 6.55e-05 | 8.15e-05 | 0.000101 | 0.000123 | 0.000147 | 0.000183
in ethanol | 0.00608 | 0.00634 | 0.00683 | 0.00737 | 0.00812 | 0.00885 | 0.00966 | 0.0108 | 0.012
in ethyl acetate | 4.01e-05 | 4.86e-05 | 5.9e-05 | 7.36e-05 | 0.000101 | 0.000134 | 0.000174 | 0.000226 | 0.000296
in isobutanol | 0.00135 | 0.00142 | 0.0015 | 0.00172 | 0.00205 | 0.00245 | 0.00281 | 0.00326 | 0.00374
in isopropanol | 0.00109 | 0.00122 | 0.00135 | 0.00157 | 0.00176 | 0.00195 | 0.0022 | 0.00241 | 0.00273
in methanol | 0.0291 | 0.0301 | 0.0317 | 0.0334 | 0.0354 | 0.0379 | 0.0403 | 0.0437 | 0.0478
in n-butanol | 0.00221 | 0.00231 | 0.00247 | 0.00263 | 0.00281 | 0.00304 | 0.00327 | 0.0035 | 0.00385
in n-propanol | 0.00303 | 0.00322 | 0.00348 | 0.00376 | 0.00401 | 0.00431 | 0.00465 | 0.00512 | 0.00574
in sec-butanol | 0.0013 | 0.00135 | 0.00149 | 0.00165 | 0.00183 | 0.00206 | 0.00227 | 0.00251 | 0.00296
in water | 0.00839 | 0.00951 | 0.0107 | 0.0125 | 0.015 | 0.0175 | 0.02 | 0.024 | 0.0278

Reference: BigSolDB 2.1
